No end group written: not given here.
Experiments:
[1] = system: biofilm genes ace, esp, ebpA, ebpC of E. faecium strain C68; test: qPCR of genes associated with biofilm formation; assay type: cell-based, Enterococcus faecium; conditions: 0.5× MIC, 30 min, real-time PCR
Experimental: For the qPCR of genes associated with biofilm formation, we followed an established protocol for RNA isolation and quantitative PCR reactions with minor modifications. We prepared exponential cultures of E. faecium strain C68 adjusted to an OD600 = 0.4 in BHI media from overnight grown cultures. After treating 10 mL of bacterial culture with 0.5× MICs of 5L and 6L for 30 min, we extracted RNA using the RNeasy mini kit (Qiagen, Hilden, Germany) according to the manufacturer’s instructions. Using the primers listed in Supplementary Table S2, we performed cDNA synthesis and quantitative reverse transcription (RT)-PCR as recommended by the manufacturer (Bio-Rad, Hercules, CA, USA). Our qPCR cycling conditions were: 95 °C for 30 s; 40 cycles at 95 °C for 5 s; 55 °C for 30 s; and finished with a melt curve analysis from 65 to 95 °C.

[2] = system: E. faecium strain C68 persister and exponential cells; test: SYTOX Green membrane permeability assay; assay type: cell-based, Enterococcus faecium; conditions: for SYTOX membrane permeabilization of exponential cells: 16 µg/mL; for SYTOX membrane permeabilization of persister cells: peptides at 16 µg/mL, fluorescence, 1 h
Experimental: We generated E. faecium strain C68 persister cells (described in the above section) and diluted them in PBS to OD600 = 0.2. We added SYTOX Green (Molecular Probes, Life Technologies, Eugene, OR, USA) to the diluted persister suspension to a final concentration of 5 μM and incubated them for 30 min at room temperature in the dark. We added 90 µL of the dye/bacteria mixture to 10 μL of serially diluted 10× peptide concentration in a 96-well black, clear-bottom plate (Cat No. 3904, Corning, NY, USA) and recorded fluorescence on a SpectraMax i3x (Molecular Devices, San Jose, CA, USA) with excitation and emission wavelengths of 485 nm and 525 nm, respectively, for 1 h at room temperature. For comparison, we also conducted membrane permeability assays using exponential cells and followed similar protocol as described for persister cells.

[3] = system: E. faecium WC176; test: organism not typed; assay type: cell-based, Enterococcus faecium; conditions: WC176, 18 h
Experimental: (§1) To determine the MICs of peptides, we used the broth microdilution method described by the Clinical and Laboratory Standards Institute. We made serial dilutions of 10× concentration (10 µL) for each peptide in duplicates in 96-well plates (Cat No. 3595, Corning, New York, NY, USA). We added 90 µL of logarithmic-phase bacteria at 5 × 10^5 CFU/mL (in BHI media) to the peptides and then incubated the plates at 37 °C for 18 h. We measured the OD600 absorbance readings using the Spectra Max i3x spectrophotometer (Molecular Devices, San Jose, CA, USA) and determined the MIC as the peptide concentration that inhibits the growth of bacteria.

[4] = system: E. faecium strain C68; test: microbe, parasite or virus in culture; assay type: cell-based, Enterococcus faecium; conditions: strain C68, 18 h
Experimental: as §1
To investigate the activity of peptides in various salt concentrations, we included physiologically relevant salts in the BHI medium.

[5] = system: E. faecium strain C68 exponential cells; test: Exponential cell time-kill assay; assay type: cell-based, Enterococcus faecium; conditions: 10× MIC, PBS
Experimental: For the generation of antibiotic-induced persister cells, we followed an established protocol. In brief, 25 mL of E. faecium strain C68 culture was grown to the stationary phase and then treated with gentamicin at 400 μg/mL for 5 h. We then disposed of the antibiotic-containing media and regrew the bacteria for another 18 h in fresh media. To produce stable persister cells, we repeated the cycle of antibiotic exposure and regrowth five times. The bacteria culture was then washed with the same volume of phosphate-buffered saline (PBS) 3× times and adjusted to 1 × 10^7 CFU/mL in PBS. For killing kinetics of the persister cells, we added 1 mL of the cell suspension to the wells of a 2 mL deep well assay block (Cat No. 3960, Corning, NY, USA) containing 10× MICs of 5L and 6L and incubated them at 37 °C, with shaking at 225 rpm. At specific times (0, 15, 30, 60, and 120 min), we collected 20 μL samples, diluted them serially, and then plated them on tryptic soy agar (TSA) (BD Difco, Franklin Lakes, NJ, USA) plates for 18 h at 37 °C for colony counting. We performed the experiments in duplicate. As a comparison, we prepared the exponential cells of E. faecium strain C68 in PBS and analyzed their killing kinetics in the same manner as described for persister cells.

[6] = system: E. faecium D25; test: microbe, parasite or virus in culture; assay type: cell-based, Enterococcus faecium; conditions: ampicillin resistant, vancomycin-sensitive isolate
Experimental: as §1

[7] = system: E. faecium D24; test: microbe, parasite or virus in culture; assay type: cell-based, Enterococcus faecium; conditions: ampicillin resistant, vancomycin-sensitive isolate
Experimental: as §1

[8] = system: E. faecium D29; test: microbe, parasite or virus in culture; assay type: cell-based, Enterococcus faecium; conditions: ampicillin resistant, vancomycin-sensitive isolate
Experimental: as §1

[9] = system: E. faecium strain C68; test: microbe, parasite or virus in culture; assay type: cell-based, Enterococcus faecium; conditions: strain C68, 18 h; remark: listed apart in the source
Experimental: as §1

[10] = system: E. faecium E007; test: microbe, parasite or virus in culture; assay type: cell-based, Enterococcus faecium; conditions: tetracycline-resistant strain
Experimental: as §1

[11] = system: E. faecium D14; test: microbe, parasite or virus in culture; assay type: cell-based, Enterococcus faecium; conditions: ampicillin resistant, vancomycin-sensitive isolate
Experimental: as §1

[12] = HPLC retention time on C18 reverse-phase column; assay type: physicochemical
Text: Table 1 Physical parameters and the minimal inhibitory concentration (µg/mL) of designed peptides against E. faecium. | column: rT ^f (min)

[13] = system: E. faecium strain C68 established biofilms; assay type: cell-based, Enterococcus faecium; conditions: for established biomass reduced: at 32 µg/mL, 24 h established biofilms
Experimental: We prepared exponential cultures of E. faecium strain C68 (adjusted to 1 × 10^8 CFU/mL) in BHI media (supplemented with 0.2% glucose) from overnight grown cultures. We added 100 µL of the bacterial culture to wells of flat-bottomed 96-well polystyrene microtiter plates (Cat No. 3595, Corning, NY, USA). We then incubated the plates at 37 °C for 24 h in static conditions to allow biofilm formation. After incubation, we carefully pipetted out the media and washed the wells with PBS (Gibco, Waltham, MA, USA) to remove loosely attached planktonic cells. We treated the established biofilms in each well with 10 µL of serially diluted 10× peptide solution, followed by the addition of 90 μL of BHI media (supplemented with 0.2% glucose). The plates were incubated for another 24 h at 37 °C before processing for biomass and live-cell contents. We quantitated the concentration of peptide that disrupts 50% of established biofilms (MBEC50).

[14] = strain C68 established biofilms, 24 h

Substance	downregulation of ace expression [1] [folds]	downregulation of ebpC expression [1] [fold]	SYTOX membrane permeabilization of exponential cells [2]	SYTOX membrane permeabilization of persister cells [2]	MIC WC176 [3] [µg/mL]	MIC + CaCl2 (2.5 mM) [4] [µg/mL]	MIC + MgSO4 (1 mM) [4] [µg/mL]	MIC + NaCl (150 mM) [4] [µg/mL]	MIC + ZnSO4 (8 µM) [4] [µg/mL]	time to eliminate all 10^7 CFU of exponential cells [5] [min]	MIC D25 [6] [µg/mL]	MIC D24 [7] [µg/mL]	MIC D29 [8] [µg/mL]	MIC EF C68 [9] [µg/mL]	MIC Media Only [9] [µg/mL]	MIC E007 [10] [µg/mL]	MIC D14 [11] [µg/mL]	rT (HPLC retention time) [12] [min]	established biomass reduced [13] [%]	MBEC50 (established biomass) [13, 14] [µg/mL]	further results
RRWLWLRRWLWR-NH2 [Peptide 5L]	8	2	enhanced membrane permeabilization	time-dependent fluorescent increment	8	16	8	4	4	120	4	8	16	4	4	4	16	17.522	75	16	downregulation of ebpA expression [1]: 2 fold; downregulation of esp expression [1]: 4 fold; live bacteria killed within matured biofilm matrix [13, 14]: 50%
RRWLWRLRWLWR-NH2 [Peptide 6L]	4	2	enhanced membrane permeabilization	time-dependent fluorescent increment	8	8	8	4	4	60	4	8	8	4	4	4	8	18.603	75	16	–
